Holding throughout (format): cell-based
One assay deals with Aβ-40. The assay can be described thus: MSD Human (6E10) Ab 3-PLEX elisa, conditioned media of 2B7 cells: Aβ-40. The conditions noted are these: Homo sapiens, Aβ-40 (superscript b); read-out: IC50 range. How it is done:
(§1) Assays were conducted to determine the ability of a Compound of Formula I to modulate […], and Aβ-38.
(§2) Plates with capture antibodies were blocked for 1-2 hours at room temperature with 150 μL of the manufactures blocking reagent.
(§3) Conditioned Media: • Cultured 2B7 cells in 96 well plate with 250 uL of media per well until confluent; • Prepared serial dilutions of compounds in DMSO at 100× the final desired concentration; • Washed wells with 2B7 cells 1× with 250 uL of media; • Diluted DMSO stocks 1:100 into media: • Added 250 μL of media containing compounds (1% DMSO) to wells with 2B7 cells for 5 hours at 37° C.
(§4) Elisa Sample Prep: • Diluted conditioned media: 1 part media with 1% DMSO and 1 part blocking buffer; • 150 μL of the 250 μL of conditioned media were used.
(§5) […] CURVE SAMPLE PREP: Prepared per manufacturer's protocol (see above) • Seven point standard curve samples were prepared that contained Aβ-42, Aβ-40, and Aβ-38. The highest concentration of Aβ-42 and Aβ-3-38 was 3,000 pg/mL and the highest concentration of Aβ-40 was 10,000 pg/mL. Subsequent serial dilutions were 1:3 and the final composition of each sample was 1 part blocking buffer and 1 part cell medium containing 1% DMSO.
(§6) Overnight Sample Incubation: • Blocked plates are washed 5× with MSD wash buffer with a plate washer • 25 uL of detection antibody and blocker G reagent in MSD blocking solution is added • 25 uL of samples (1 part conditioned media containing 1% DMSO and 1 part MSD blocking buffer) are then added. • plates are incubated overnight at 4 degrees C. or 2 hours at room temp
(§7) Final Wash and Readout: • Wash wells 5× with MSD wash buffer • Added 150 μL 2×MSD read buffer • Read with MSD imager.
(§8) A-Beta peptide levels for each peptide are calculated from the standard curve using the MSD software provided with the MSD 2400 Imager. Percent vehicle values for each compound dosage were then calculated and fit to a 4 parameter curve generating IC50 values.

Another assay concerns Aβ-42. The assay is described as follows: MSD Human (6E10) Ab 3-PLEX elisa, conditioned media of 2B7 cells: Aβ-42. The conditions noted are these: Homo sapiens; Aβ-42 (superscript c); read-out: IC50 range. How it is done:
as §1, §2, §3, §4, §5, §6, §7, §8

Assay [1] deals with amyloid-beta (1-42) peptide. The assay is described as follows: ELISA assay of amyloid-beta (1-42) in conditioned media of 2B7 cells. The conditions noted are these: for IC50: Aβ-42, 2B7 cells, 5 hours, read-out: IC50 range. The method in brief:
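2B7 cells were treated with compounds for 5 hours at 37° C in media with 1% DMSO. Conditioned media, diluted 1:2 in blocking buffer, went into a sandwich ELISA with 6E10 capture and an HRP-labelled detection antibody, read by TMB at 450 nm. Values came from an Aβ peptide standard curve.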

Read-outs that look alike come from different tables or passages of the source. Where only a bound is given, the exact number is not on record here.

Broadly, the IC50 is the concentration that inhibits the measured activity by half. Regarding `C[C@@H]1CC(CNC(C(=O)O)C(F)(F)F)OC2[C@H]1[C@@]1(C)CC[C@@]34C[C@@]35CC[C@H](O[C@H]3CN(C(=O)CC6CC6)CCO3)C(C)(C)[C@@H]5CCC4[C@]1(C)[C@H]2O` (stereo partly drawn), the IC50 in the assay on Aβ-40 and with Aβ-42 was 1 to 10 µM throughout. What is called inhibition is the percentage by which the read-out fell short of the control. In the case of `CC(=O)O[C@@H]([C@H]1C[C@@H](C)C2C(O1)[C@H](O)[C@@]1(C)[C@@H]3CC[C@H]4C(C)(C)[C@H](N5CCOCC5)CC[C@@]45C[C@@]35CC[C@]21C)C(C)(C)O` (stereo partly drawn), in assay [1] (Aβ-42, 100 umol/L, read-out: % Inhibition (range)), the inhibition at 100 µM is under 25%. For `CC(=O)N(Cc1cccc(F)c1)CC1CC(C)C2C(O1)C(O)C1(C)C3CCC4C(C)(C)C(O)CCC45CC35CCC21C` (stereo not drawn), in assay [1], the IC50 was at most 1 µM. As for `CC1CC(C(O)C(C)(C)O)OC2C1C1(C)CCC34CC35CCC(OC3CN(C6CCOC6)CCO3)C(C)(C)C5CCC4C1(C)C2O` (single isomer, unassigned) [drawing 1105], in assay [1] (Aβ-42, 20 umol/L), the “% Inhibition (range)” value is “F (% inhibition of <25%)”. Take `C[C@@H]1C[C@H]([C@@H]2OC(=O)OC2(C)C)OC2=C1[C@@]1(C)CC[C@@]34C[C@@]35CC[C@H](O[C@@H]3OC[C@@H](O)[C@H](O)[C@H]3O)C(C)(C)[C@@H]5CC[C@H]4[C@]1(C)[C@H]2O`: the IC50 in assay [1] (5 h) lay in the range of 1 to 10 µM. For `CC(=O)OC(C1CC(C)C2C(O1)C(O)C1(C)C3CCC4C(C)(C)C(OC(=O)C5CNC5)CCC45CC35CCC21C)C(C)(C)O` (stereo not drawn) [drawing 791], the IC50 in assay [1] is at most 1 µM.

Turning to `CC(=O)O[C@@H]([C@H]1C[C@@H](C)[C@H]2[C@H](O1)[C@H](O)[C@@]1(C)[C@@H]3CC[C@H]4C(C)(C)[C@@H](O[C@H]5CN(CCO)CCO5)CC[C@@]45C[C@@]35CC[C@]21C)C(C)(C)O`, the IC50 in assay [1] (5 h) was at most 1 µM.

As for `CC(=O)O[C@@H]([C@H]1C[C@@H](C)C2C(O1)[C@H](O)[C@@]1(C)[C@@H]3CC[C@H]4C(C)(C)[C@@H](O[C@H]5CN(C)CCO5)CC[C@@]45C[C@@]35CC[C@]21C)C(C)(C)O` (stereo partly drawn), the IC50 in assay [1] (5 h) was at most 1 µM. As for `CC(=O)OCC1CC(C)C2C(O1)C(O)C1(C)C3CCC4C(C)(C)C(OC(=O)c5cccnc5)CCC45CC35CCC21C` (stereo not drawn) [drawing 832], the IC50 in assay [1] fell in the range of 1 to 10 µM. In the case of `CC(=O)O[C@@H]([C@H]1C[C@@H](C)[C@H]2[C@H](O1)[C@H](O)[C@@]1(C)[C@@H]3CC[C@H]4C(C)(C)[C@@H](O[C@H]5CN(CC(F)(F)F)CCO5)CC[C@@]45C[C@@]35CC[C@]21C)C(C)(C)O`, the half-maximal inhibitory concentration (IC50) in assay [1] (5 h) is at most 1 µM. With `CC1CC(CN)OC2C1C1(C)CCC34CC35CCC(O)C(C)(C)C5CCC4C1(C)C2O` (stereo not drawn), the IC50 in assay [1] is over 10 µM. As for `CC(=O)O[C@@H]([C@H]1C[C@@H](C)C2C(O1)[C@H](O)[C@@]1(C)[C@@H]3CC[C@H]4C(C)(C)[C@@H](OC5CN(CCN6CCOCC6)CCO5)CC[C@@]45C[C@@]35CC[C@]21C)C(C)(C)O` (stereo partly drawn), the IC50 in assay [1] (5 h) was at most 1 µM. With `CC1CC(C(O)C(C)(C)O)OC2C1C1(C)CCC34CC35CCC(OC3CN(C(=O)C6CCN(C)CC6)CCO3)C(C)(C)C5CCC4C1(C)C2O` (stereo not drawn), in assay [1], the IC50 lay in the range of 1 to 10 µM. Still for that read-out and setting: the value for `CC1CC(CNS(C)(=O)=O)OC2C1C1(C)CCC34CC35CCC(O)C(C)(C)C5CCC4C1(C)C2O` (stereo not drawn) was over 10 µM.
